This note sets out measurements from US12297190B2, “Modulators of STING (stimulator of interferon genes)” (PFIZER INC., priority 2019, dated 2025).

What is called Ki is a measure of affinity in units of concentration, obtained from inhibition or displacement. A high value points to weaker binding.

This assay concerns the target R232-STING (Homo sapiens, UniProt Q86WV6, H232R). Kind of assay: biochemical.

Sequence of R232-STING (Q86WV6 155-341 H232R): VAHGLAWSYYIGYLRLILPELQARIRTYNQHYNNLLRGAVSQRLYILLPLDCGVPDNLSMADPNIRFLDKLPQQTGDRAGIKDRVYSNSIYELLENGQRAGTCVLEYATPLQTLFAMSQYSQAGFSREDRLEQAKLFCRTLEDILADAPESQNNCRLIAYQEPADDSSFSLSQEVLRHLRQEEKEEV

In the case of `CCn1nc(C)cc1-c1nnc(-c2cc(C(N)=O)cc3c2cnn3CCCN(C)C)[nH]1` [ZZZ007, 1-[3-(dimethylamino)propyl]-4-[5-(1-ethyl-3-methyl-1H-pyrazol-5-yl)-4H-1,2,4-triazol-3-yl]-1H-indazole-6-carboxamide], affinity was put at a Ki of 850 nM.

Regarding `CCn1nc(C)cc1-c1nnc(-c2cc(C(N)=O)cc3c2cnn3C(C)CN2CCCC2)[nH]1` (stereo not shown) [ZZZ040, 4-[5-(1-ethyl-3-methyl-1H-pyrazol-5-yl)-4H-1,2,4-triazol-3-yl]-1-[1-(pyrrolidin-1-yl)propan-2-yl]-1H-indazole-6-carboxamide], the Ki was above 990 nM.

`CCn1nc(C)c(F)c1-c1nnc(-c2cc(C(N)=O)cn3cncc23)[nH]1` [ZZZ128, 8-[5-(1-ethyl-4-fluoro-3-methyl-1H-pyrazol-5-yl)-4H-1,2,4-triazol-3-yl]imidazo[1,5-a]pyridine-6-carboxamide] displayed a Ki of 556 nM.

Regarding `CCn1nc(C)cc1-c1nnc(-c2cc(C(N)=O)cc3c2cnn3CC(C)(C)CN(C)C)[nH]1` [ZZZ013, 1-[3-(dimethylamino)-2,2-dimethylpropyl]-4-[5-(1-ethyl-3-methyl-1H-pyrazol-5-yl)-4H-1,2,4-triazol-3-yl]-1H-indazole-6-carboxamide], the inhibition constant Ki was above 990 nM.

Molecule `CCc1cc(-c2n[nH]c(-c3cc(C(N)=O)cc4c3cnn4C)n2)n(CC)n1` [ZZZ005, 4-[3-(1,3-diethyl-1H-pyrazol-5-yl)-1H-1,2,4-triazol-5-yl]-1-methyl-1H-indazole-6-carboxamide] showed a Ki above 990 nM.

For `CCn1nc(C)cc1-c1ncc(-c2cc(C(N)=O)cc3c2cnn3C)[nH]1` [ZZZ009, 4-[2-(1-ethyl-3-methyl-1H-pyrazol-5-yl)-1H-imidazol-5-yl]-1-methyl-1H-indazole-6-carboxamide], affinity was put at a Ki of 947 nM.

In turn, `CCn1nc(C)cc1-c1n[nH]c(-c2cc(C(N)=O)cc3c2cnn3CCN2CCO[C@@H](C)[C@H]2C)n1` [ZZZ088, 1-{2-[(2S,3R)-2,3-dimethylmorpholin-4-yl]ethyl}-4-[3-(1-ethyl-3-methyl-1H-pyrazol-5-yl)-1H-1,2,4-triazol-5-yl]-1H-indazole-6-carboxamide] registered a Ki above 990 nM.

For the molecule `CCn1nc(CO)cc1-c1nnc(-c2cc(C(N)=O)cc3c2cnn3C)[nH]1` [ZZZ050, 4-{5-[1-ethyl-3-(hydroxymethyl)-1H-pyrazol-5-yl]-4H-1,2,4-triazol-3-yl}-1-methyl-1H-indazole-6-carboxamide], the Ki was above 990 nM.

Take `CCn1nc(C)cc1-c1nnc(-c2cc(C(N)=O)cc3c2cnn3CC2CC3(CNC3)C2)[nH]1` [ZZZ080, 1-[(2-azaspiro[3.3]heptan-6-yl)methyl]-4-[5-(1-ethyl-3-methyl-1H-pyrazol-5-yl)-4H-1,2,4-triazol-3-yl]-1H-indazole-6-carboxamide]: the Ki was above 990 nM.

For `CCn1nc(C)cc1-c1nnc(-c2cc(C(N)=O)cc3nn(CCN(C)C)cc23)[nH]1` [ZZZ006, 2-[2-(dimethylamino)ethyl]-4-[5-(1-ethyl-3-methyl-1H-pyrazol-5-yl)-4H-1,2,4-triazol-3-yl]-2H-indazole-6-carboxamide], the Ki was above 990 nM.

As for `CCn1nc(C(=O)O)cc1-c1nc(-c2nc(C(N)=O)cc3c2cnn3C)n(C)n1` [ZZZ083, 5-[5-(6-carbamoyl-1-methyl-1H-pyrazolo[4,3-c]pyridin-4-yl)-1-methyl-1H-1,2,4-triazol-3-yl]-1-ethyl-1H-pyrazole-3-carboxylic acid], the Ki was above 270 nM.

Molecule `CCc1nc(C)[nH]c1-c1n[nH]c(-c2cc(C(N)=O)cc3c2cnn3C)n1` [ZZZ055, 4-[3-(4-ethyl-2-methyl-1H-imidazol-5-yl)-1H-1,2,4-triazol-5-yl]-1-methyl-1H-indazole-6-carboxamide] showed a Ki above 990 nM.

`CCn1nc(C)cc1-c1nnc(-c2cc(C(N)=O)cc3c2cnn3C[C@H]2[C@@H]3CN(C(C)C)C[C@@H]32)[nH]1` [ZZZ017, 4-[5-(1-ethyl-3-methyl-1H-pyrazol-5-yl)-4H-1,2,4-triazol-3-yl]-1-{[(1R,5S,6r)-3-(propan-2-yl)-3-azabicyclo[3.1.0]hexan-6-yl]methyl}-1H-indazole-6-carboxamide] showed an inhibition constant Ki above 990 nM.

For the molecule `CCn1nc(C)cc1-c1nnc(-c2cc(C(N)=O)cc3c2cnn3CCN2CCC(C)CC2)[nH]1` [ZZZ018, 4-[5-(1-ethyl-3-methyl-1H-pyrazol-5-yl)-4H-1,2,4-triazol-3-yl]-1-[2-(4-methylpiperidin-1-yl)ethyl]-1H-indazole-6-carboxamide], affinity was put at a Ki of 748 nM.

Take `CCn1nc(CO)c(F)c1-c1nc(-c2nc(C(N)=O)cc3c2cnn3C)n(C)n1` [ZZZ052, 4-{3-[1-ethyl-4-fluoro-3-(hydroxymethyl)-1H-pyrazol-5-yl]-1-methyl-1H-1,2,4-triazol-5-yl}-1-methyl-1H-pyrazolo[4,3-c]pyridine-6-carboxamide]: the Ki was above 990 nM.

For the molecule `CCn1nc(C)cc1-c1nnc(-c2cc(C(N)=O)cc3c2cnn3[C@@H](C)CN2CCCC2)[nH]1` [ZZZ024, 4-[5-(1-ethyl-3-methyl-1H-pyrazol-5-yl)-4H-1,2,4-triazol-3-yl]-1-[(2S)-1-(pyrrolidin-1-yl)propan-2-yl]-1H-indazole-6-carboxamide], the Ki is above 990 nM.

Regarding `CCn1nc(C)cc1-c1nnc(-c2cc(C(N)=O)cc3c2cnn3[C@H]2CC[C@@H](NC)CC2)[nH]1` [ZZZ075, 4-[5-(1-ethyl-3-methyl-1H-pyrazol-5-yl)-4H-1,2,4-triazol-3-yl]-1-[(1s,4s)-4-(methylamino)cyclohexyl]-1H-indazole-6-carboxamide], the Ki came to 961 nM.

On to `CCn1nc(C)cc1-c1n[nH]c(-c2cc(C(N)=O)cc3c2cnn3CCN2C[C@H](O)[C@H]2C)n1` [ZZZ091, 4-[3-(1-ethyl-3-methyl-1H-pyrazol-5-yl)-1H-1,2,4-triazol-5-yl]-1-{2-[(2R,3S)-3-hydroxy-2-methylazetidin-1-yl]ethyl}-1H-indazole-6-carboxamide], for which the Ki is 831 nM.

In the case of `Cc1nn(CC(CO)CO)c(-c2n[nH]c(-c3cc(C(N)=O)cc4c3cnn4C)n2)c1F` [ZZZ049, 4-(3-{4-fluoro-1-[3-hydroxy-2-(hydroxymethyl)propyl]-3-methyl-1H-pyrazol-5-yl}-1H-1,2,4-triazol-5-yl)-1-methyl-1H-indazole-6-carboxamide], the Ki was above 900 nM.

`CCn1nc(C)cc1-c1nnc(-c2cc(C(N)=O)cc3c2cnn3CC2CC3(CCN(C)CC3)C2)[nH]1` [ZZZ033, 4-[5-(1-ethyl-3-methyl-1H-pyrazol-5-yl)-4H-1,2,4-triazol-3-yl]-1-[(7-methyl-7-azaspiro[3.5]nonan-2-yl)methyl]-1H-indazole-6-carboxamide] gave a Ki of 572 nM.

`CCn1nc(C)cc1-c1n[nH]c(-c2cc(C(N)=O)cc3c2cnn3CCN2CCOC[C@H]2CO)n1` [ZZZ120, 4-[3-(1-ethyl-3-methyl-1H-pyrazol-5-yl)-1H-1,2,4-triazol-5-yl]-1-{2-[(3R)-3-(hydroxymethyl)morpholin-4-yl]ethyl}-1H-indazole-6-carboxamide] came in with a Ki of 905 nM.

In turn, `CCn1nc(C)c(F)c1-c1nc(CN)c(-c2nc(C(N)=O)cc3c2cnn3C)o1` [ZZZ045, 4-[4-(aminomethyl)-2-(1-ethyl-4-fluoro-3-methyl-1H-pyrazol-5-yl)-1,3-oxazol-5-yl]-1-methyl-1H-pyrazolo[4,3-c]pyridine-6-carboxamide] displayed a Ki above 900 nM.

Consider `CCn1nc(C)cc1-c1n[nH]c(-c2cc(C(N)=O)cc3c2cnn3CCN2CCC23CC3)n1` [ZZZ093, 1-[2-(4-azaspiro[2.3]hexan-4-yl)ethyl]-4-[3-(1-ethyl-3-methyl-1H-pyrazol-5-yl)-1H-1,2,4-triazol-5-yl]-1H-indazole-6-carboxamide], for which the Ki was above 990 nM.

In the case of `CCn1nc(C)cc1-c1nnc(-c2cc(C(N)=O)cc3c2cnn3CC2CC3(CCNC3)C2)[nH]1` (stereo not shown) [ZZZ070, 1-[(6-azaspiro[3.4]octan-2-yl)methyl]-4-[5-(1-ethyl-3-methyl-1H-pyrazol-5-yl)-4H-1,2,4-triazol-3-yl]-1H-indazole-6-carboxamide], the inhibition constant (Ki) is above 990 nM.

`CCc1nc(C)n(C)c1-c1n[nH]c(-c2cc(C(N)=O)cc3c2cnn3C)n1` [ZZZ056, 4-[3-(4-ethyl-1,2-dimethyl-1H-imidazol-5-yl)-1H-1,2,4-triazol-5-yl]-1-methyl-1H-indazole-6-carboxamide] displayed a Ki above 990 nM.

Regarding `CCn1nc(C)cc1-c1n[nH]c(-c2nc(C(N)=O)cc3cn[nH]c23)n1` [ZZZ010, 7-[3-(1-ethyl-3-methyl-1H-pyrazol-5-yl)-1H-1,2,4-triazol-5-yl]-1H-pyrazolo[3,4-c]pyridine-5-carboxamide], the Ki was above 990 nM.

The molecule `CCn1nc(C)cc1-c1nnc(-c2cc(C(N)=O)cc3c2cnn3C[C@H]2C[C@H]3CC[C@@H](C2)N3)[nH]1` [ZZZ065, 1-{[(1R,3r,5S)-8-azabicyclo[3.2.1]octan-3-yl]methyl}-4-[5-(1-ethyl-3-methyl-1H-pyrazol-5-yl)-4H-1,2,4-triazol-3-yl]-1H-indazole-6-carboxamide] came in with a Ki of 964 nM.

`CCn1nc(C)cc1-c1n[nH]c(-c2cc(C(N)=O)cc3c2cnn3CCN2C3COCC2C3)n1` [ZZZ090, 4-[3-(1-ethyl-3-methyl-1H-pyrazol-5-yl)-1H-1,2,4-triazol-5-yl]-1-[2-(3-oxa-6-azabicyclo[3.1.1]heptan-6-yl)ethyl]-1H-indazole-6-carboxamide] displayed a Ki above 990 nM.

Turning to `CCn1nc(C)cc1-c1nnc(-c2cc(C(N)=O)cc3c2cnn3CCN(C)CCOC)[nH]1` [ZZZ030, 4-[5-(1-ethyl-3-methyl-1H-pyrazol-5-yl)-4H-1,2,4-triazol-3-yl]-1-{2-[(2-methoxyethyl)(methyl)amino]ethyl}-1H-indazole-6-carboxamide], the Ki was 861 nM.

Molecule `CCn1nc(C)cc1-c1n[nH]c(-c2cc(C(N)=O)cc3c2cnn3CCN2CC[C@@H](OC)C2)n1` [ZZZ111, 4-[3-(1-ethyl-3-methyl-1H-pyrazol-5-yl)-1H-1,2,4-triazol-5-yl]-1-{2-[(3R)-3-methoxypyrrolidin-1-yl]ethyl}-1H-indazole-6-carboxamide] displayed a Ki of 842 nM.

Molecule `CCn1nc(C)cc1-c1nnc(-c2cc(C(N)=O)cc3c2cnn3[C@H]2C[C@@H](NC)C2)[nH]1` [ZZZ081, 4-[5-(1-ethyl-3-methyl-1H-pyrazol-5-yl)-4H-1,2,4-triazol-3-yl]-1-[(1s,3s)-3-(methylamino)cyclobutyl]-1H-indazole-6-carboxamide] returned a Ki above 990 nM.
